The target of experiment [1] is T1, DPP-IV enzyme (Sus scrofa, UniProt P22411).
T1 construct: purchased Sigma Chemical Co. (St. Louis, MO, USA)
The experiment in a line: Lineweaver-Burk double-reciprocal plot, mode of DPP-IV inhibition. The format is biochemical, porcine. The conditions noted are these: Figure 7. The procedure: Figure 7 Lineweaver—Burk double-reciprocal plot for DPP-IV activity in the absence and presence of four peptides at different inhibitory concentrations. […] (0, 150, and 300 μM); (C) peptide LAPSTM (0, 150, and 300 μM); (D) peptide […] (0, 250, and 500 μM); and (E) peptide FLMESH (0, 400, and 800 μM).
DPP-IV inhibitory activity was measured as previously described by Zhang with minor modifications. Briefly, a 25 μL sample (diluted in 100 mM Tris-HCl buffer at pH 8.0) was mixed with 25 μL Gly-Pro-p-nitroanilide (1.6 mM) and pre-incubated at 37 °C for 10 min. Subsequently, 50 μL of DPP-IV (8 U/L) was added and the mixture was incubated at 37 °C for 1 h. The reaction was terminated by adding 100 μL of 1 M sodium acetate buffer at pH 4.0. The absorbance of each reaction was measured at 405 nm. […] The percent DPP-IV inhibition was calculated according to the following equation: DPP-IV inhibition(%)=[1−Asample/Ablank]×100%

Experiment [2] concerns DPP-IV. Set-up: method as in PMID 26758401. Conditions: heptapeptide derived from silver carp actin; cited from earlier work.
Experiment [3] addresses T2, porcine DPP-IV (Sus scrofa, UniProt P22411).
T2 construct: purchased Sigma Chemical Co. (St. Louis, MO, USA)
Put plainly: DPP-IV inhibitory activity assay (Gly-Pro-p-nitroanilide substrate, absorbance 405 nm). The conditions noted are these: chemically synthesized peptides; diprotin A positive control. The format is biochemical. From the text: Papain (from papaya, 8 × 10^5 units/g of protein), trypsin (from porcine pancreas, 2.5 × 10^5 units/g of protein), pepsin (from porcine gastric mucosa, 1 × 10^4 units/g of protein), flavourzyme (from […], 2 × 10^4 units/g of protein), and alcalase (from Bacillus licheniformis, 2 × 10^5 units/g of protein) were purchased from […] Biological Tech., Ltd. (Nanjing, China). […] (St. Louis, MO, USA). Mass spectrometry (MS)-grade water, acetonitrile (ACN), and trifluoroacetic acid (TFA) were purchased from Tedia Company Inc. (Fairfield, CT, USA). All other reagents were obtained from Sigma. All reagents were of analytical grade. DPP-IV inhibitory activity was measured as previously described by Zhang with minor modifications. Briefly, a 25 μL sample (diluted in 100 mM Tris-HCl buffer at pH 8.0) was mixed with 25 μL Gly-Pro-p-nitroanilide (1.6 mM) and pre-incubated at 37 °C for 10 min. […] The reaction was terminated by adding 100 μL of 1 M sodium acetate buffer at pH 4.0. The absorbance of each reaction was measured at 405 nm. Diprotin A ([…]) was used as a reference inhibitor. The percent DPP-IV inhibition was calculated according to the following equation: […] The DPP-IV inhibitory activity of these chemically synthesized peptides was determined as described in Section 3.3.

The test system of experiment [4] is DPP-IV. Set-up: method as in PMID 25577052. The conditions noted are these: read-out: DPP-IV inhibitory activity IC50; cited from earlier work.

No end group written: not given here. Bounds are passed on as bounds.

T1 sequence (P22411 whole entry): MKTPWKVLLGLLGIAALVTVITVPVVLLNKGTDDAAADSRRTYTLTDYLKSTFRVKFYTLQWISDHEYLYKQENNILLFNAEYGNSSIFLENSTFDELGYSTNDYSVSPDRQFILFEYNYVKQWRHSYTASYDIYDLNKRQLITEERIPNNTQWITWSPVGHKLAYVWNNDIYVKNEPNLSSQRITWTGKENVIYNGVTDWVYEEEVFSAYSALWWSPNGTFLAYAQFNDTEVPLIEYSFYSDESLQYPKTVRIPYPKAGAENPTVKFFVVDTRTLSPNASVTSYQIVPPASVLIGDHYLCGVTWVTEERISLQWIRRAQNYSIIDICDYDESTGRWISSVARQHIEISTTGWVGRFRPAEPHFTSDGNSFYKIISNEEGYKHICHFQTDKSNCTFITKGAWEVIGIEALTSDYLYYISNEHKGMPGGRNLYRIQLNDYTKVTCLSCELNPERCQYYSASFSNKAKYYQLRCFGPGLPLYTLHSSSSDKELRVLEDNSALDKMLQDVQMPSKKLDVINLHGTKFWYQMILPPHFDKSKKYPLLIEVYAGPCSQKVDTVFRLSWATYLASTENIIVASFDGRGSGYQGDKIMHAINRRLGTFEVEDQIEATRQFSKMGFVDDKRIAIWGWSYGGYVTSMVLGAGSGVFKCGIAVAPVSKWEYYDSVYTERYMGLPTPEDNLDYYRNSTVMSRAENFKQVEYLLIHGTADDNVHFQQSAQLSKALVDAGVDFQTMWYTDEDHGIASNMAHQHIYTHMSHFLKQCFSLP
T2 sequence (P22411 whole entry): as above

With `CC[C@H](C)[C@H](N)C(=O)N1CCC[C@H]1C(=O)N[C@H](C(=O)O)[C@@H](C)CC` [diprotin A, Ile-Pro-Ile, reference compound], in experiment [1], the “mode of inhibition of DPP-IV enzyme” value is reported as “competitive inhibitor”.

For “ALAPSTM [heptapeptide derived from silver carp actin, from the literature]”, in experiment [2], the DPP-IV inhibitory effect result was “weak DPP-IV inhibitory effect”. For the molecule FAGDDAPR [FAGDDAPR], in experiment [1], the “mode of inhibition of DPP-IV enzyme” value is recorded as “competitive/non-competitive mixed-type inhibition mode”. Moreover, in experiment [3], half-maximal inhibition (IC50) required 169 µM. In the case of FAGDDAPRA [FAGDDAPRA], the “mode of inhibition of DPP-IV enzyme” value in experiment [1] is listed as “competitive/non-competitive mixed-type inhibition mode”. Further, in experiment [3], the 50% inhibitory concentration (IC50) came out at 393 µM. The corresponding values for FLMESH [FLMESH] are “competitive/non-competitive mixed-type inhibition mode” and above 500 µM. In turn, LAPSTM [LAPSTM] returned an IC50 in experiment [3] of 141 µM. For the molecule Leu-Ala, the IC50 in experiment [4] is 91 µM.

The values above are taken from article PMC6151561, “Rapid Identification of Dipeptidyl Peptidase-IV (DPP-IV) Inhibitory Peptides from Ruditapes philippinarum Hydrolysate” (Molecules : A Journal of Synthetic Chemistry and Natural …, 2017).
